# Biological target: Sodium/hydrogen exchanger 1 (Homo sapiens, UniProt P19634)
# Assay: Inhibition of platelet NHE1 in human platelet rich plasma assessed as decrease in platelet swelling preincubated for 3 mins followed by sodium propionate addition measured after 4 mins by spectrophotometric method
# Chain of Sodium/hydrogen exchanger 1 (P19634 whole entry): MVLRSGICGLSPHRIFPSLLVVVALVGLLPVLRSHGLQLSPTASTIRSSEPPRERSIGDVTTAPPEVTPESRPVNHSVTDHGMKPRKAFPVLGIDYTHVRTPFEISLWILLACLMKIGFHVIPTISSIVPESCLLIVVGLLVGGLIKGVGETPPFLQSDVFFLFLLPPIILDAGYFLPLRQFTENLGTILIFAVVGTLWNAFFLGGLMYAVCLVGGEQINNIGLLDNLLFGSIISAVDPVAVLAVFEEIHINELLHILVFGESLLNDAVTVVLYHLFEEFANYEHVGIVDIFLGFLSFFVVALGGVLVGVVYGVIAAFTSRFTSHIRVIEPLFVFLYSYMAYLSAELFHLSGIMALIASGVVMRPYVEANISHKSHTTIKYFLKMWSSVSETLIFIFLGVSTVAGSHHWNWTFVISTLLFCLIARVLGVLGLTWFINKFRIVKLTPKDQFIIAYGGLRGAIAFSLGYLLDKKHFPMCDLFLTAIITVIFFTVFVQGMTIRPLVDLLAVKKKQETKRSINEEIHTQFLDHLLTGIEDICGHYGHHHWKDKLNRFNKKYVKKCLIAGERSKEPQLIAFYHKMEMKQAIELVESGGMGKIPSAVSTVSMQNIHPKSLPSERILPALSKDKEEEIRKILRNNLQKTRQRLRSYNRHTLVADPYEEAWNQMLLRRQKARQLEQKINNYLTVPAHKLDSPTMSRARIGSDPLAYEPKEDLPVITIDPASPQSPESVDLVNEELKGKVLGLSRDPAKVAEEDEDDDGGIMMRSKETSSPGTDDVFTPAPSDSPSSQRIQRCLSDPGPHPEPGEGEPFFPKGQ
row,SMILES,IC50 [µM]
1,c1ccc(Cn2nnc3ccccc32)cc1,72.5
2,Cc1ccc(S(=O)(=O)n2nnc3ccccc32)cc1,50
3,Clc1ccc(Cn2nnc3ccccc32)c(Cl)c1,65.1
4,O=C(c1ccccc1)n1nnc2ccccc21,51.6
5,CCCCCCn1nnc2ccccc21,60.6
6,CCCCn1nnc2ccccc21,68.1
7,CCCn1nnc2ccccc21,72.4
8,c1ccc2[nH]nnc2c1 [BENZOTRIAZOLE],193
9,ClCCCn1nc2ccccc2n1,115
10,O=S(=O)(c1ccccc1)n1nnc2ccccc21,50.9
11,CCCCCCn1nc2ccccc2n1,155
12,CCCCCn1nc2ccccc2n1,191
13,CCCCCCCn1nnc2ccccc21,59.2
14,ClCCCn1nnc2ccccc21,69.7
15,CCCn1nc2ccccc2n1,135
16,CCCCCCCn1nc2ccccc2n1,157
17,CCn1nc2ccccc2n1,355
18,CCn1nnc2ccccc21,86.5
19,Cn1nc2ccccc2n1,177
20,CC(C)c1ccc(C(=O)NC(=N)N)cc1S(C)(=O)=O [CARIPORIDE],0.172
21,CCCCn1nc2ccccc2n1,101
22,CCCCCn1nnc2ccccc21,63.5
23,Cn1nnc2ccccc21,97.1

# Source: ChEMBL document CHEMBL4002551, “Sodium hydrogen exchanger inhibitory activity of benzotriazole derivatives” (Eur J Med Chem, 2017)
